Key:
[1] = Storage stability of FlucmRNA-loaded LNP at −80, 5, 25 and 40° C.; assay type: physicochemical; conditions: for period for which quality remained good, −80° C.: maximum storage period 1 week; for period for which quality remained good, 5° C. / period for which quality remained good, 25° C. / period for which quality remained good, 40° C. (weeks) / period for which quality remained good, 40° C. (days): maximum storage period 5 weeks
Method: Lipid nanoparticles were allowed to stand at each temperature of −80° C., 5° C., 25° C., and 40° C., and after keeping for each period of time, average particle size, PDI, and nucleic acid encapsulation rate were measured. Lipid nanoparticles which satisfy following all three conditions were defined that the quality was remained well: the average particle size is maintained within +/−20 nm based on the date of LNP preparation; PDI remains high uniformity with a value of 0.2 or less; and the nucleic acid encapsulation rate is also maintained at 80% or more. As a result of measuring average particle size, PDI, and nucleic acid encapsulation rate after each FlucmRNA-loaded lipid nanoparticle was allowed to stand at −80° C., 5° C., 25° C., and 40° C. respectively and kept for each period of time, periods of time defined as the quality of the lipid nanoparticles was remained well are shown in Tables 13 and 14. The lipid nanoparticles which remain in good quality with standing at 5° C. for one week or more can be evaluated as having excellent stability.

liver = assay: In vivo Fluc activity of FlucmRNA-loaded LNP by in vivo imaging, liver; conditions: Balb/c mice, 6 hours; for Fluc Activity in liver: FlucmRNA-loaded LNP i.v. 0.1 mg mRNA/kg
Method: (§1) Then, each prepared FlucmRNA-loaded lipid nanoparticles were administered to Balb/c mice (Charles River Laboratories Japan, Inc., 7 weeks old, female) and in vivo gene expression activity was examined. Specifically, each FlucmRNA-loaded lipid nanoparticles were intravenously administered to Balb/c mice at 0.1 mg mRNA/kg, and Fluc activities in the liver and spleen at 6 hours later were measured. Fluc activity was measured by in vivo imaging system (Perkin Elmer, IVIS200) after administration of VivoGlo Luciferin, In Vivo Grade (Promega, P1041) dissolved with PBS to 15 mg/mL, via tail vein at a dose of 1.5 mg per mouse. The unit of Fluc activity is the emission intensity per unit area (Avg Radiance [p/s/cm2/sr]) at the maximum emission wavelength of about 560 nm. The results of measurement of the Fluc activity (Avg Radiance [p/s/cm2/sr]) in the liver and spleen of mice administered each FlucmRNA-loaded lipid nanoparticles are shown in Tables 5-7.

[2] = siRNA/mRNA encapsulation rate by Ribogreen reagent (section IV); assay type: physicochemical; conditions: for % siRNA encapsulation: F7siRNA-loaded LNP, 50:10:38.5:1.5, N/P ratio 6; for % mRNA encapsulation: FlucmRNA-loaded LNP, 50:10:38.5:1.5
Method: The encapsulation rates of siRNA and mRNA of lipid nanoparticles were measured with Ribogreen reagent. A solution diluted with TE buffer solution was arranged so that lipid nanoparticle concentration as nucleic acid concentration to be 8 μg/mL, as a solution for measuring nanoparticle surface nucleic acid concentration. In addition, a solution for measuring total nucleic acid concentration was arranged so that lipid nanoparticle concentration as nucleic acid concentration to be 1.2 μg/mL, which is 1% (w/w) concentration of X-triton100, by adding X-triton100. For 100 μL of each solution, 100 μL of Ribogreen (registered trademark) reagent (Quant-iT™ RiboGreen™ RNA Reagent, manufactured by Thermofisher Scientific) was mixed well in the wells of 96-well microplate (black, made of polystyrene, flat bottom, manufactured by Corning), and the fluorescence intensity at an excitation wavelength of 485 nm and a measurement wavelength of 528 nm was measured with a microplate reader. Nucleic acid concentration was calculated by calibration curve created by measuring the fluorescence intensity of nucleic acid solution containing 1% X-triton100 (nucleic acid concentration: 0-2.5 μg/mL) as same as aforementioned. Nucleic acid encapsulation rate of each lipid nanoparticle was calculated by the following formula: Encapsulation rate %=(nucleic acid concentration in solution for measuring total nucleic acid concentration (μg/mL)−nucleic acid concentration in solution for measuring nanoparticle surface nucleic acid concentration (μg/mL))/nucleic acid concentration in solution for measuring total nucleic acid concentration (μg/mL)×100. <Results>
The encapsulation rate of mRNA of lipid nanoparticles was measured using Ribogreen (manufactured by life technologies).

F7 = assay: In vivo F7 knockdown, plasma F7 enzyme activity (BIOPHEN FVII), Balb/c mice; conditions: for F7 enzyme activity (%) / F7 enzyme activity (Ratio using MC3 as 1): i.v. 0.025 mg siRNA/kg, plasma at 24 hours; for F7 enzyme activity (%): untreated mice as 100%; for knockdown activity, compared with MC3: F7siRNA-loaded LNP, versus LNP comprising MC3; for F7 enzyme activity (Ratio using MC3 as 1): relative plasma F7 activity of MC3 LNP as 1
Method: Then, each prepared F7siRNA-loaded lipid nanoparticles were administered to Balb/c mice (Charles River Laboratories Japan, Inc., 5 weeks old, female) and in vivo F7 knockdown activity was examined. Specifically, BALB/c mice were intravenously administered F7siRNA-loaded lipid nanoparticles comprising the lipids described in Table 9 at 0.025 mg siRNA/kg and F7siRNA-loaded lipid nanoparticles comprising the lipids described in Tables 10 and 11 at 0.025 mg siRNA/kg, and the plasma F7 enzyme activity at 24 hours later was measured using BIOPHEN FVII (Biophen, A221304). Relative plasma F7 enzyme activity (%) of mice administered each F7siRNA-loaded lipid nanoparticles was calculated using plasma F7 enzyme activity of untreated mice as 100%. Furthermore, the ratio was calculated using the relative plasma F7 enzyme activity (%) of mice administered MC3-comprising F7siRNA-loaded lipid nanoparticles as 1. The results of measurement of CL4F6 derivative nanoparticles are shown in Tables 9 and 10, and results of measurement of CL15F6 derivative nanoparticles in Table 11.

spleen = assay: In vivo Fluc activity of FlucmRNA-loaded LNP by in vivo imaging, spleen; conditions: Balb/c mice, 6 hours; for Fluc activity in the spleen, compared with CL4F6: 0.1 mg mRNA/kg, versus LNP comprising CL4F6 (Tables 5 and 6); for Fluc Activity in spleen: FlucmRNA-loaded LNP i.v. 0.1 mg mRNA/kg
Method: as §1

[3] = Average particle size (ζ-Average) and PDI by dynamic light scattering (Zetasizer Nano ZSP); assay type: physicochemical
Method: The average particle size (ζ-Average) and PDI in PBS(−) of lipid nanoparticles were measured using “Zetasizer Nano ZSP”, an analyzer utilizing dynamic light scattering (manufactured by Malvern).
Measurement of average particle size and PDI of the lipid nanoparticles were carried out with the same method as the measurement of average particle size of mRNA-LNP.
The average particle size (ζ-Average) and PDI in PBS (−) of lipid nanoparticles were measured using “Zetasizer Nano ZSP”, an analyzer utilizing dynamic light scattering (manufactured by Malvern).

[4] = F7siRNA-loaded LNP, 50:10:38.5:1.5, N/P ratio 6
[5] = FlucmRNA-loaded LNP, 50:10:38.5:1.5
[6] = FlucmRNA-loaded LNP, lipid:DSPC:cholesterol:DMG-PEG2K 50:10:38.5:1.5

Row | Structure (SMILES) | period for which quality remained good, −80° C. [1] [week] | period for which quality remained good, 5° C. [1] [weeks] | period for which quality remained good, 25° C. [1] [weeks] | period for which quality remained good, 40° C. (weeks) [1] | Fluc Activity in liver (liver) | % siRNA encapsulation [2] [%] | % mRNA encapsulation [2] [%] | F7 enzyme activity (%) (F7) | Fluc activity in the spleen, compared with CL4F6 (spleen) | Fluc Activity in spleen (spleen) | PDI [3, 4] | ζ-Average (nm) [3, 4] [nm] | PDI [3, 5] | ζ-Average (nm) [3, 6] [nm] | knockdown activity, compared with MC3 (F7) | F7 enzyme activity (Ratio using MC3 as 1) (F7) | Fluc activity in the liver, compared with CL4F6 (liver; 0.1 mg mRNA/kg, versus LNP comprising CL4F6 (Tables 5 and 6)) | period for which quality remained good, 40° C. (days) [1] [day days]
1 | CCCCCC(CCCCC)C(=O)OCCCCCCC(O)(CCCCCCOC(=O)C(CCCCC)CCCCC)CCCCN(CCC)CCC [CL4F 7-5] | 1 | 2 | 5 | 1 week weeks | 4.56E+07 Avg Radiance [p/s/cm2/sr] | 100.1 | 99.9 | 35.7 | higher Fluc activity | 1.47E+07 Avg Radiance [p/s/cm2/sr] | 0.021 | 120.20 | 0.057 | 109.80 | – | – | – | –
2 | CCCCCCC(CCCCC)C(=O)OCCCCCCC(O)(CCCCCCOC(=O)C(CCCCC)CCCCCC)CCCCN(CCC)CCC (stereo not drawn) [CL4F 8-5] | 1 | 5 | 5 | 5 weeks | 4.80E+07 Avg Radiance [p/s/cm2/sr] | 99.7 | 99.1 | – | higher Fluc activity | 1.45E+07 Avg Radiance [p/s/cm2/sr] | 0.034 | 103.40 | 0.043 | 94.65 | higher knockdown activity | 0.38 | – | –
3 | CCCCCCC(CCCCCC)C(=O)OCCCCCCC(O)(CCCCCCOC(=O)C(CCCCCC)CCCCCC)CCCCN(CCC)CCC [CL4F 8-6] | 1 | 5 | 5 | 1 week weeks | 1.80E+08 Avg Radiance [p/s/cm2/sr] | 100.0 | 99.4 | 3 | higher Fluc activity | 9.58E+06 Avg Radiance [p/s/cm2/sr] | 0.010 | 99.72 | 0.022 | 88.78 | – | – | higher Fluc activity | –
4 | CCCCCCCC(CCC)C(=O)OCCCCCCC(O)(CCCCCCOC(=O)C(CCC)CCCCCCC)CCCCN(CCC)CCC (stereo not drawn) [CL4F 9-3] | 1 | 5 | 5 | – | 2.96E+07 Avg Radiance [p/s/cm2/sr] | 99.9 | 99.6 | 11.7 | higher Fluc activity | 8.17E+06 Avg Radiance [p/s/cm2/sr] | 0.022 | 114.40 | 0.030 | 102.80 | – | – | – | 0
5 | CCCCCCCC(CCCCC)C(=O)OCCCCCCC(O)(CCCCCCOC(=O)C(CCCCC)CCCCCCC)CCCCN(CCC)CCC (stereo not drawn) [CL4F 9-5] | 1 | 5 | 5 | 5 weeks | 6.84E+07 Avg Radiance [p/s/cm2/sr] | 99.9 | 99.0 | – | higher Fluc activity | 9.53E+06 Avg Radiance [p/s/cm2/sr] | 0.032 | 99.72 | 0.048 | 89.41 | higher knockdown activity | 0.43 | – | –
6 | CCCCCCCCC(CC)C(=O)OCCCCCCC(O)(CCCCCCOC(=O)C(CC)CCCCCCCC)CCCCN(CCC)CCC (stereo not drawn) [CL4F 10-2] | 0 | 5 | 1 | – | 3.02E+07 Avg Radiance [p/s/cm2/sr] | 99.6 | 98.6 | 11.4 | higher Fluc activity | 6.40E+06 Avg Radiance [p/s/cm2/sr] | 0.024 | 115.60 | 0.068 | 93.60 | – | – | – | 0

From patent US12458605B2, “Lipid nanoparticle” (National University Corporation Hokkaido University, priority 2020, dated 2025)
